# Data from US20250074901A1, “NOVEL HETEROARYL COMPOUNDS” (ICAGEN, LLC, priority 2021, published 2025).
# Molecular target: T1, Kv7.2 (Homo sapiens, UniProt O43526)
# T1 construct: expressed in transfected cells
# Test: Activation of Kv7.2 (in vitro assay, concentration response curve)
# Type: cell-based
# Details: for Emax: Kv7.2 activation max %; for EC50: activation of Kv7.2
# In short: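 EC50 is the half-maximal effective concentration, relative to the Emax observed for each compound in this in vitro assay. It was derived from concentration–response curves of the agonistic effect measured over a series of concentrations.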
Emax [%],EC50 [nM],Compound
48,1030,"O=C(NCc1ccnc(OC(F)F)c1)NC12CCC(F)(CC1)CC2O (stereo not drawn) [Example 82, 1-[[2-(difluoromethoxy)pyridin-4-yl]methyl]-3-(4-fluoro-2-hydroxy-1-bicyclo[2.2.2]octanyl)urea]"
45,2470,"COc1cccc(NC(=O)NCc2ccnc(OC(F)F)c2)c1 [Example 83, 1-[[2-(difluoromethoxy)pyridin-4-yl]methyl]-3-(3-methoxyphenyl)urea]"
42,210,"O=C(NCc1ccnc(OC(F)F)c1)Nc1cccc(Cl)n1 [Example 84, 1-(6-chloropyridin-2-yl)-3-[[2-(difluoromethoxy)pyridin-4-yl]methyl]urea]"
74,420,"O=C(NC(CO)c1ccnc(OC(F)F)c1)NC12CCC(F)(CC1)CC2 (stereo not drawn) [Example 85, 1-[1-[2-(difluoromethoxy)pyridin-4-yl]-2-hydroxyethyl]-3-(4-fluoro-1-bicyclo[2.2.2]octanyl)urea]"
40,850,"O=C(NCc1ccnc(OC(F)F)c1)NC[C@H]1C[C@@H](C(F)(F)F)C1 [Example 87, 1-[[2-(difluoromethoxy)pyridin-4-yl]methyl]-3-[[3-(1r,3r)-(trifluoromethyl)cyclobutyl]methyl]urea]"
43,440,"CC(F)COc1cc(CNC(=O)NC23CCC(F)(CC2)CC3)ccn1 (stereo not drawn) [Example 88, 1-(4-fluoro-1-bicyclo[2.2.2]octanyl)-3-[[2-(2-fluoropropoxy)pyridin-4-yl]methyl]urea]"
46,1040,"O=C(NCc1ccnc(OC(F)F)c1)NCC1CC(F)C1 (stereo not drawn) [Example 89, 1-[[2-(difluoromethoxy)pyridin-4-yl]methyl]-3-[(3-fluorocyclobutyl)methyl]urea]"
62,180,"O=C(NCc1ccnc(OC(F)F)c1)NC1CCC(F)(F)CC1 [Example 90, 1-(4,4-difluorocyclohexyl)-3-[[2-(difluoromethoxy)pyridin-4-yl]methyl]urea]"
82,1260,"O=C(NC(CO)c1ccnc(OC(F)F)c1)N[C@H]1C[C@H](C(F)(F)F)C1 (stereo partly drawn) [Example 91, 1-[1-[2-(difluoromethoxy)pyridin-4-yl]-2-hydroxyethyl]-3-[(1r,3r)-3-(trifluoromethyl)cyclobutyl]urea]"
64,180,"O=C(Nc1cccc(Cl)c1)NC(CO)c1ccnc(OCC(F)(F)F)c1 (stereo not drawn) [Example 92, 1-(3-chlorophenyl)-3-[2-hydroxy-1-[2-(2,2,2-trifluoroethoxy)pyridin-4-yl]ethyl]urea]"
56,450,"O=C(NCc1ccnc(OC(F)F)c1)NC1CCC(F)(F)C1 (stereo not drawn) [Example 93, 1-(3,3-difluorocyclopentyl)-3-[[2-(difluoromethoxy)pyridin-4-yl]methyl]urea]"
43,1160,"CC(C)(C)C(O)CNC(=O)NCc1ccnc(OC(F)F)c1 (stereo not drawn) [Example 95, 1-[[2-(difluoromethoxy)pyridin-4-yl]methyl]-3-(2-hydroxy-3,3-dimethylbutyl)urea]"
85,7220,"O=C(NCc1ccnc(OC(F)F)c1)Nc1nccc(Cl)n1 [Example 96, 1-(4-chloropyrimidin-2-yl)-3-[[2-(difluoromethoxy)pyridin-4-yl]methyl]urea]"
55,80,"O=C(Nc1cccc(Cl)c1)NC(CO)c1ccnc(OC(F)F)c1 (stereo not drawn) [Example 97, 1-(3-chlorophenyl)-3-[1-[2-(difluoromethoxy)pyridin-4-yl]-2-hydroxyethyl]urea]"
48,810,"O=C(NCc1ccnc(OC(F)F)c1)Nc1cncc(Cl)n1 [Example 98, 1-(6-chloropyrazin-2-yl)-3-[[2-(difluoromethoxy)pyridin-4-yl]methyl]urea]"
40,3660,"O=C(NCc1ccnc(OC(F)F)c1)N[C@H]1C[C@](O)(C(F)(F)F)C1 [Example 100, 1-[[2-(difluoromethoxy)pyridin-4-yl]methyl]-3-[(1s,3s)-3-hydroxy-3-(trifluoromethyl)cyclobutyl]urea]"
71,30,"O=C(NCc1ccnc(OC(F)F)c1)N[C@H]1CC[C@@H]2CCC[C@@H]21 [Example 103, 1-[(1S,3aS,6aS)-1,2,3,3a,4,5,6,6a-octahydropentalen-1-yl]-3-[[2-(difluoromethoxy)pyridin-4-yl]methyl]urea]"
78,40,O=C(NCc1ccnc(OC(F)F)c1)N[C@H]1C[C@H]2CCC[C@H]2C1 [Example 105]
47,820,"O=C(NCc1ccnc(OC(F)F)c1)NC(C1CC1)C(F)(F)F (stereo not drawn) [Example 106, 1-(1-cyclopropyl-2,2,2-trifluoroethyl)-3-[[2-(difluoromethoxy)pyridin-4-yl]methyl]urea]"
51,2080,"O=C(NCc1ccnc(OC(F)F)c1)NC1CC(F)(F)C1 [Example 108, 1-(3,3-difluorocyclobutyl)-3-[[2-(difluoromethoxy)pyridin-4-yl]methyl]urea]"

Emax [%],EC50 [nM],Compound
51,300,"CC(C)(C)CCNC(=O)NCc1ccnc(OC(F)F)c1 [Example 109, 1-[[2-(difluoromethoxy)pyridin-4-yl]methyl]-3-(3,3-dimethylbutyl)urea]"
40,1230,"O=C(NCc1ccnc(OC(F)F)c1)NC1(CC(F)(F)F)CC1 [Example 110, 1-[[2-(difluoromethoxy)pyridin-4-yl]methyl]-3-[1-(2,2,2-trifluoroethyl)cyclopropyl]urea]"
77,3490,"O=C(NCc1ccnc(OC(F)F)c1)NC1CCCC1(F)F (stereo not drawn) [Example 113, 1-(2,2-difluorocyclopentyl)-3-[[2-(difluoromethoxy)pyridin-4-yl]methyl]urea]"
68,7430,"O=C(NCc1ccnc(OC(F)F)c1)NN1CC2CCCC2C1 (stereo not drawn) [Example 114, 1-(3,3a,4,5,6,6a-hexahydro-1H-cyclopenta[c]pyrrol-2-yl)-3-[[2-(difluoromethoxy)pyridin-4-yl]methyl]urea]"
48,330,"O=C(NCc1ccnc(OC(F)F)c1)N[C@@H]1CCC(F)(F)C1 [Example 115, 1-[(1R)-3,3-difluorocyclopentyl]-3-[[2-(difluoromethoxy)pyridin-4-yl]methyl]urea]"
58,320,"O=C(NCc1ccnc(OC(F)F)c1)N[C@H]1CCC(F)(F)C1 [Example 116, 1-[(1S)-3,3-difluorocyclopentyl]-3-[[2-(difluoromethoxy)pyridin-4-yl]methyl]urea]"
94,1900,"O=C(NC(CCO)c1ccnc(OC(F)F)c1)N[C@H]1C[C@H](C(F)(F)F)C1 (stereo partly drawn) [Example 117, 1-[1-[2-(difluoromethoxy)pyridin-4-yl]-3-hydroxypropyl]-3-[(1r,3r)-3-(trifluoromethyl)cyclobutyl]urea]"
41,1600,"COC(CNC(=O)NCc1ccnc(OC(F)F)c1)C(F)(F)F (stereo not drawn) [Example 119, 1-[[2-(difluoromethoxy)pyridin-4-yl]methyl]-3-(3,3,3-trifluoro-2-methoxypropyl)urea]"
62,120,"CC(F)(F)COc1cc(CNC(=O)N[C@H]2C[C@H](C(F)(F)F)C2)ccn1 [Example 121, 1-[[2-(2,2-difluoropropoxy)pyridin-4-yl]methyl]-3-[(1r,3r)-3-(trifluoromethyl)cyclobutyl]urea]"
61,190,"CC(F)(F)COc1cc(CNC(=O)NC23CCC(F)(CC2)CC3)ccn1 [Example 122, 1-[[2-(2,2-difluoropropoxy)pyridin-4-yl]methyl]-3-(4-fluoro-1-bicyclo[2.2.2]octanyl)urea]"
62,750,"[2H]C([2H])(NC(=O)NCc1ccnc(OC(F)F)c1)C1CCC1 [Example 125, 1-[cyclobutyl(dideuterio)methyl]-3-[[2-(difluoromethoxy)pyridin-4-yl]methyl]urea]"
50,650,"Cc1cccc(NC(=O)NCc2ccnc(OC(F)F)c2)c1 [Example 126, 1-[[2-(difluoromethoxy)pyridin-4-yl]methyl]-3-(3-methylphenyl)urea]"
75,5360,"COc1cc(CNC(=O)N[C@H]2C[C@H](C(F)(F)F)C2)ccn1 [Example 128, 1-[(2-methoxypyridin-4-yl)methyl]-3-[(1r,3r)-3-(trifluoromethyl)cyclobutyl]urea]"
53,4970,"COc1cc(CNC(=O)NC23CCC(F)(CC2)CC3)ccn1 [Example 129, 1-(4-fluoro-1-bicyclo[2.2.2]octanyl)-3-[(2-methoxypyridin-4-yl)methyl]urea]"
61,170,"O=C(NCc1ccnc(OC(F)F)c1)NC12CCC(CC1)CC2 [Example 131, 1-(1-bicyclo[2.2.2]octanyl)-3-[[2-(difluoromethoxy)pyridin-4-yl]methyl]urea]"
43,1070,"O=C(NCc1ccnc(OC(F)F)c1)Nc1cccc(CF)c1 [Example 132, 1-[[2-(difluoromethoxy)pyridin-4-yl]methyl]-3-[3-(fluoromethyl)phenyl]urea]"
62,600,"O=C(NCc1ccnc(OC(F)F)c1)N[C@@H]1CC[C@@H]2[C@H]1C2(F)F [Example 133, 1-[(1R,2R,5R)-6,6-difluoro-2-bicyclo[3.1.0]hexanyl]-3-[[2-(difluoromethoxy)pyridin-4-yl]methyl]urea]"
43,550,"O=C(NCc1ccnc(OC(F)F)c1)N[C@H](C1CC1)C(F)(F)F [Example 134, 1-[(1R)-1-cyclopropyl-2,2,2-trifluoroethyl]-3-[[2-(difluoromethoxy)pyridin-4-yl]methyl]urea]"
68,1110,"O=C(NCc1ccnc(OC(F)F)c1)N[C@@H](C1CC1)C(F)(F)F [Example 135, 1-[(1S)-1-cyclopropyl-2,2,2-trifluoroethyl]-3-[[2-(difluoromethoxy)pyridin-4-yl]methyl]urea]"
